The target in test [1] is human CMV DNA polymerase UL54 (Human cytomegalovirus (strain AD169) (HHV-5) (Human herpesvirus 5), UniProt P08546). Briefly: CMV polymerase biochemical assay (molecular beacon-based). Summed up: (§1)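 Readout was beacon fluorescence (ex 480, em 535 nm), used to derive IC50. Each dNTP was at 1.25 uM, with 200 nM primer and 100 nM beacon, after a 30-min RT inhibitor preincubation. Enzyme was 625 pM for HSV UL30 (20 min RT reaction) or 100 pM for CMV UL54 (60 min RT), both sf9-expressed MBP fusions, in pH 7.5 Tris buffer with MgCl2.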

In test [2] the target is human HSV DNA polymerase UL30 (Human herpesvirus 1 (strain 17) (HHV-1) (Human herpes simplex virus 1), UniProt P04293). Briefly: HSV polymerase biochemical assay (molecular beacon-based). Summed up: as §1
Test [3] has as its system Luciferase-encoding HCMV, AD169 strain. Description: CMV Luciferase assay (cellular herpesvirus replication). Format: cell-based. Particulars: Human betaherpesvirus 5, AD169, read-out: CMV-Luc Cellular EC50. Summed up: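 Neonatal human dermal fibroblasts were pretreated 1 h with compound (final 0.0159–50 μM or 0.00318–10 μM, 0.5% DMSO), then infected at MOI 1 with AD169 carrying pp28-promoter luciferase. After 72 h at 37 °C, Renilla-Glo luminescence normalized to no-virus and virus-only controls; EC50 by 4-parameter logistic model.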

A word on the IC50: it is the midpoint of a concentration-inhibition curve. A low value points to higher potency. Broadly, the EC50 is the midpoint of the concentration-response curve. In the case of `CC1Cn2c(ccc(C(=O)NCc3ccc(Cl)cc3)c2=O)C(=O)N1CCN(C)S(C)(=O)=O` (stereo not drawn) [Example 92, N-(4-chlorobenzyl)-3-methyl-2-(2-(N-methylmethylsulfonamido)ethyl)-1,6-dioxo-2,3,4,6-tetrahydro-1H-pyrido[1,2-a]pyrazine-7-carboxamide], the 50% inhibitory concentration (IC50) in test [1] is 312 nM; in test [2], 1340 nM. For the same molecule, the EC50 in test [3] came out at 2980 nM.
The corresponding values for `Cc1cc(C(=O)NCc2ccc(C#N)cc2)c(=O)n2c1C(=O)N(CC1(S(=O)(=O)C3CC3)CC1)CC2` [Example 93-1, N-(4-cyanobenzyl)-2-((1-(cyclopropylsulfonyl)cyclopropyl)methyl)-9-methyl-1,6-dioxo-2,3,4,6-tetrahydro-1H-pyrido[1,2-a]pyrazine-7-carboxamide] are 1.1 nM, 46.7 nM and 38.6 nM.
The matching figures for `Cc1cc(C(=O)NCc2ccc(Cl)cc2)c(=O)n2c1C(=O)N(CC1(S(=O)(=O)C3CC3)CC1)CC2` [Example 93-2]: 0.8 nM, 28.6 nM and 15.3 nM.
`Cc1cc(C(=O)NCc2ccc(C#N)c(F)c2)c(=O)n2c1C(=O)N(CC1(S(=O)(=O)C3CC3)CC1)CC2` [Example 93-3]: the values for the IC50 in test [1] and in test [2] were 5.9 nM and 28.3 nM, respectively. The EC50 in test [3] was 21 nM.
The corresponding values for `CC1(S(=O)(=O)C2(CN3CCn4c(ccc(C(=O)NCc5ccc(C#N)cc5)c4=O)C3=O)CC2)CC1` [Example 94-1] are 0.6 nM, 33.2 nM and 13.3 nM.
The matching figures for `CC1(S(=O)(=O)C2(CN3CCn4c(ccc(C(=O)NCc5ccc(C#N)c(F)c5)c4=O)C3=O)CC2)CC1` [Example 94-2]: 0.3 nM, 25.3 nM and 7.9 nM.
The matching figures for `CS(=N)(=O)C1(CN2CCn3c(ccc(C(=O)NCc4ccc(Cl)cc4)c3=O)C2=O)CC1` (stereo not drawn) [Example 95, N-(4-chlorobenzyl)-2-((1-(S-methylsulfonimidoyl)cyclopropyl)methyl)-1,6-dioxo-2,3,4,6-tetrahydro-1H-pyrido[1,2-a]pyrazine-7-carboxamide]: 16.6 nM, 722 nM and 263 nM.
As to `N#Cc1ccc(CNC(=O)c2ccc3n(c2=O)CCN(CC2(S(=O)(=O)C4(C(F)(F)F)CC4)CC2)C3=O)cc1` [Example 97-1], the figures for the concentration for half-maximal inhibition (IC50) in test [1] and in test [2] were 5 nM and 122 nM, respectively. For the same molecule, in test [3], the 50% effective concentration (EC50) is 222 nM.
The corresponding values for `N#Cc1ccc(CNC(=O)c2ccc3n(c2=O)CCN(CC2(S(=O)(=O)C4(C(F)(F)F)CC4)CC2)C3=O)cc1F` [Example 97-2] are 3.2 nM, 90.8 nM and 189 nM.
The corresponding values for `N#Cc1ccc(CNC(=O)c2ccc3n(c2=O)CCN(CC2(S(=O)(=O)C4CC4(F)F)CC2)C3=O)cc1` (stereo not drawn) [Example 98-1] are 1.5 nM, 57.5 nM and 65.2 nM.
The corresponding values for `N#Cc1ccc(CNC(=O)c2ccc3n(c2=O)CCN(CC2(S(=O)(=O)C4CC4(F)F)CC2)C3=O)cc1F` (stereo not drawn) [Example 98-2] are 1.2 nM, 57.6 nM and 41 nM.
`N#Cc1ccc(CNC(=O)c2ccc3n(c2=O)CCN(CC2(S(=O)(=O)C4CC4(F)F)CC2)C3=O)cc1Cl` (stereo not drawn) [Example 98-3]: the IC50 in test [1] came to 1.7 nM; in test [2] it was 200 nM. Also, the EC50 in test [3] came to 102 nM.
The matching figures for `N#Cc1ccc(CNC(=O)c2ccc3n(c2=O)CCN(CC2(S(=O)(=O)C4(C(F)F)CC4)CC2)C3=O)cc1` [Example 99-1]: 1 nM, 49.4 nM and 43.9 nM.
The matching figures for `N#Cc1ccc(CNC(=O)c2ccc3n(c2=O)CCN(CC2(S(=O)(=O)C4(C(F)F)CC4)CC2)C3=O)cc1F` [Example 99-2]: 0.7 nM, 52.4 nM and 30.1 nM.
The corresponding values for `N#Cc1ccc(CNC(=O)c2ccc3n(c2=O)CCN(CC2(S(=O)(=O)C4(C(F)F)CC4)CC2)C3=O)cc1Cl` [Example 99-3] are 0.8 nM, 201 nM and 172 nM.
As for `CC1(CS(=O)(=O)C2(CN3CCn4c(ccc(C(=O)NCc5ccc(Cl)cc5)c4=O)C3=O)CC2)COC1` [Example 103-1], the 50% inhibitory concentration (IC50) in test [1] worked out at 9.4 nM; in test [2] it was 109 nM. The EC50 in test [3] stood at 237 nM.
The matching figures for `CC1(CS(=O)(=O)C2(CN3CCn4c(ccc(C(=O)NCc5ccc(C#N)cc5)c4=O)C3=O)CC2)COC1` [Example 103-2]: 1.1 nM, 108 nM and 1270 nM.
Turning to `CC1(CS(=O)(=O)C2(CN3CCn4c(ccc(C(=O)NCc5ccc(C#N)c(F)c5)c4=O)C3=O)CC2)COC1` [Example 103-3], the 50% inhibitory concentration (IC50) in test [1] was found to be 10.8 nM; in test [2], 170 nM. Moreover, in test [3], the concentration for a half-maximal effect (EC50) amounted to 791 nM.
As for `O=C(NCc1ccc(Cl)cc1)c1ccc2n(c1=O)CCN(CC1(S(=O)(=O)CC3(C(F)(F)F)CC3)CC1)C2=O` [Example 104-1], the IC50 in test [1] worked out at 18.6 nM; in test [2], 185 nM. The EC50 in test [3] was 639 nM.
The matching figures for `N#Cc1ccc(CNC(=O)c2ccc3n(c2=O)CCN(CC2(S(=O)(=O)CC4(C(F)(F)F)CC4)CC2)C3=O)cc1` [Example 104-2]: 24.3 nM, 301 nM and 1820 nM.
The matching figures for `N#Cc1ccc(CNC(=O)c2ccc3n(c2=O)CCN(CC2(S(=O)(=O)CC4(C(F)(F)F)CC4)CC2)C3=O)cc1F` [Example 104-3]: 10.1 nM, 273 nM and 1080 nM.
The matching figures for `O=C(NCc1ccc(Cl)cc1)c1ccc2n(c1=O)CCN(CC1(S(=O)(=O)C3CCOCC3)CC1)C2=O` [Example 105-1, N-(4-chlorobenzyl)-1,6-dioxo-2-((1-((tetrahydro-2H-pyran-4-yl)sulfonyl)cyclopropyl)methyl)-2,3,4,6-tetrahydro-1H-pyrido[1,2-a]pyrazine-7-carboxamide]: 1.5 nM, 39.7 nM and 50.1 nM.
In the case of `N#Cc1ccc(CNC(=O)c2ccc3n(c2=O)CCN(CC2(S(=O)(=O)C4CCOCC4)CC2)C3=O)cc1` [Example 105-2], the IC50 in test [1] turned out to be 2.5 nM; in test [2], 64.3 nM. Moreover, the 50% effective concentration (EC50) in test [3] amounted to 178 nM.
The corresponding values for `CC(C)(C)[S+]([O-])C1(CN2CCn3c(ccc(C(=O)NCc4ccc(C#N)cc4)c3=O)C2=O)CC1` (stereo not drawn) [Example 106, 2-((1-(tert-Butylsulfinyl)cyclopropyl)methyl)-N-(4-cyanobenzyl)-1,6-dioxo-2,3,4,6-tetrahydro-1H-pyrido[1,2-a]pyrazine-7-carboxamide] are 33.4 nM, 972 nM and 1120 nM.
The matching figures for `O=C(NCc1ccc(Cl)cc1)c1ccc2n(c1=O)CCN(CC1(S(=O)(=O)CC3CC3)CC1)C2=O` [Example 107-1, N-(4-chlorobenzyl)-2-((1-((cyclopropylmethyl)sulfonyl)cyclopropyl)methyl)-1,6-dioxo-2,3,4,6-tetrahydro-1H-pyrido[1,2-a]pyrazine-7-carboxamide]: 1.9 nM, 61.6 nM and 111 nM.
The corresponding values for `N#Cc1ccc(CNC(=O)c2ccc3n(c2=O)CCN(CC2(S(=O)(=O)CC4CC4)CC2)C3=O)cc1` [Example 107-2] are 2.5 nM, 150 nM and 200 nM.
Consider `N#Cc1ccc(CNC(=O)c2ccc3n(c2=O)CCN(CC2(S(=O)(=O)CC4CC4)CC2)C3=O)cc1F` [Example 107-3], for which the half-inhibitory concentration (IC50) in test [1] came out at 2.2 nM; in test [2], 72.6 nM. The EC50 in test [3] turned out to be 174 nM.
The matching figures for `CC1(CS(=O)(=O)C2(CN3CCn4c(ccc(C(=O)NCc5ccc(C#N)c(F)c5)c4=O)C3=O)CC2)CC1` [Example 109, N-(4-cyano-3-fluorobenzyl)-2-((1-(((1-methylcyclopropyl)methyl)sulfonyl)cyclopropyl)methyl)-1,6-dioxo-1,3,4,6-tetrahydro-2H-pyrido[1,2-a]pyrazine-7-carboxamide]: 3.2 nM, 121 nM and 112 nM.
As to `N#CC1(CS(=O)(=O)C2(CN3CCn4c(ccc(C(=O)NCc5ccc(Cl)cc5)c4=O)C3=O)CC2)CC1` [Example 110, N-(4-chlorobenzyl)-2-((1-(((1-cyanocyclopropyl)methyl)sulfonyl)cyclopropyl)methyl)-1,6-dioxo-1,3,4,6-tetrahydro-2H-pyrido pyrazine-7-carboxamide], the 50% inhibitory concentration (IC50) in test [1] was 1.9 nM; in test [2], 33.5 nM. The EC50 in test [3] turned out to be 81.7 nM.
The corresponding values for `N#Cc1ccc(CNC(=O)c2ccc3n(c2=O)CCN(CC2(S(=O)(=O)CC4(C#N)CC4)CC2)C3=O)cc1` [Example 111] are 3.6 nM, 59.5 nM and 433 nM.
The matching figures for `N#Cc1ccc(CNC(=O)c2ccc3n(c2=O)CCN(CC2(S(=O)(=O)CC4(C#N)CC4)CC2)C3=O)cc1F` [Example 112]: 2.2 nM, 44.1 nM and 187 nM.

The values above are taken from US12466821B2 (Novartis AG, priority 2018, dated 2025).
